Data reported in PMC9073595, “Synthesis, human topoisomerase IIα inhibitory properties and molecular modeling studies of anti-proliferative curcumin mimics” (RSC Advances, 2019).

Legend:
[1] = test system: MCF7 (breast) carcinoma cell line; experiment: MTT anti-proliferative assay, MCF7; type: cell-based; settings: Homo sapiens, MCF7, 72 h; read-out: IC50, μM ± SD, MCF7
[2] = test system: HCT116 (colon) carcinoma cell line; experiment: MTT anti-proliferative assay, HCT116; type: cell-based; settings: Homo sapiens, HCT-116, 72 h; read-out: IC50, μM ± SD, HCT116
[3] = test system: RPE1 (normal human immortalized retinal pigment epithelial cell line); experiment: MTT assay on normal cells, RPE1; type: cell-based; settings: RPE-1, RPE1 normal (non-cancer) cell line, read-out: IC50, μM ± SD, RPE1
Procedure: In-vitro antitumor screening
The targeted piperidinecarboxamides 24‒51 were screened for their antitumor properties against HCT116 (colon), MCF7 (breast) and A431 (squamous skin) carcinoma cell lines by the standard mitochondrial dependent reduction of yellow MTT [3-(4,5-dimethylthiazol-2-yl)-2,5-diphenyl-tetrazolium bromide] to purple formazan technique.11 Cells were suspended in McCoy’s 5A medium for HCT116, DMEM for MCF-7 and A431 in addition to 1% antibiotic–antimycotic mixture (10000 μg ml-1 potassium penicillin, 10000 μg ml-1 streptomycin sulfate and 25 μg ml-1 amphotericin B), 10% fetal bovine serum and 1% L-glutamine at 37 °C, under 5% CO2 and 95% humidity. Cells were seeded at concentration of 30000 cells per well in fresh complete growth medium in 96-well tissue culture microtiter plates for 24 h. Media was aspirated, fresh complete medium was added and cells were incubated with different concentrations of the tested compound to give a final concentration of [50, 25, 12.5 and 6.25 μM ([…] and 0.375 μM for the high potent analogues)]. 0.5% DMSO was used as negative control and 5-fluorouracil was used as positive control (standard reference). Triplicate wells were prepared for each individual dose. After 72 h of incubation, medium was aspirated, 40 μl MTT salt (2.5 mg ml-1) were added to each well and incubated for further 4 h at 37 °C.
To stop the reaction and dissolve the formed crystals, 150 μl of 10% sodium dodecyl sulfate (SDS) in deionized water were added to each well and incubated overnight at 37 °C. The absorbance was then measured at 570 nm and a reference wavelength of 595 nm.
Data were collected as mean values for experiments performed in triplicates for each individual dose which had been measured by MTT assay. Control experiments did […]
survival was calculated according to equ. (1).
Surviving fraction = … . (1)
The synthesized compounds 24‒51 were also tested against RPE1 (normal human immortalized retinal pigment epithelial cell line) cell to determine the toxicity/selectivity […]
towards normal cells relative to the carcinoma cell lines utilized. The IC50 (concentration […]
was determined using Graph-Pad PRISM version-5 software. Statistical calculations for determination of the mean and standard error values were determined by SPSS 16 […]
8:1 which is the ratio between the data points and the number of QSAR descriptor).
Human DNA topoisomerase IIα inhibitory properties

[4] = test system: A431 (squamous skin) carcinoma cell line; experiment: MTT anti-proliferative assay, A431; type: cell-based; settings: Homo sapiens, A-431, 72 h; read-out: IC50, μM ± SD, A431
[5] = target: T1, human DNA topoisomerase IIα (Homo sapiens, UniProt P11388); experiment: Human DNA topoisomerase IIα activity assay (TopoGEN kit, plasmid based); type: biochemical
T1 construct: purchased TopoGEN, Inc
T1 sequence (P11388 whole entry): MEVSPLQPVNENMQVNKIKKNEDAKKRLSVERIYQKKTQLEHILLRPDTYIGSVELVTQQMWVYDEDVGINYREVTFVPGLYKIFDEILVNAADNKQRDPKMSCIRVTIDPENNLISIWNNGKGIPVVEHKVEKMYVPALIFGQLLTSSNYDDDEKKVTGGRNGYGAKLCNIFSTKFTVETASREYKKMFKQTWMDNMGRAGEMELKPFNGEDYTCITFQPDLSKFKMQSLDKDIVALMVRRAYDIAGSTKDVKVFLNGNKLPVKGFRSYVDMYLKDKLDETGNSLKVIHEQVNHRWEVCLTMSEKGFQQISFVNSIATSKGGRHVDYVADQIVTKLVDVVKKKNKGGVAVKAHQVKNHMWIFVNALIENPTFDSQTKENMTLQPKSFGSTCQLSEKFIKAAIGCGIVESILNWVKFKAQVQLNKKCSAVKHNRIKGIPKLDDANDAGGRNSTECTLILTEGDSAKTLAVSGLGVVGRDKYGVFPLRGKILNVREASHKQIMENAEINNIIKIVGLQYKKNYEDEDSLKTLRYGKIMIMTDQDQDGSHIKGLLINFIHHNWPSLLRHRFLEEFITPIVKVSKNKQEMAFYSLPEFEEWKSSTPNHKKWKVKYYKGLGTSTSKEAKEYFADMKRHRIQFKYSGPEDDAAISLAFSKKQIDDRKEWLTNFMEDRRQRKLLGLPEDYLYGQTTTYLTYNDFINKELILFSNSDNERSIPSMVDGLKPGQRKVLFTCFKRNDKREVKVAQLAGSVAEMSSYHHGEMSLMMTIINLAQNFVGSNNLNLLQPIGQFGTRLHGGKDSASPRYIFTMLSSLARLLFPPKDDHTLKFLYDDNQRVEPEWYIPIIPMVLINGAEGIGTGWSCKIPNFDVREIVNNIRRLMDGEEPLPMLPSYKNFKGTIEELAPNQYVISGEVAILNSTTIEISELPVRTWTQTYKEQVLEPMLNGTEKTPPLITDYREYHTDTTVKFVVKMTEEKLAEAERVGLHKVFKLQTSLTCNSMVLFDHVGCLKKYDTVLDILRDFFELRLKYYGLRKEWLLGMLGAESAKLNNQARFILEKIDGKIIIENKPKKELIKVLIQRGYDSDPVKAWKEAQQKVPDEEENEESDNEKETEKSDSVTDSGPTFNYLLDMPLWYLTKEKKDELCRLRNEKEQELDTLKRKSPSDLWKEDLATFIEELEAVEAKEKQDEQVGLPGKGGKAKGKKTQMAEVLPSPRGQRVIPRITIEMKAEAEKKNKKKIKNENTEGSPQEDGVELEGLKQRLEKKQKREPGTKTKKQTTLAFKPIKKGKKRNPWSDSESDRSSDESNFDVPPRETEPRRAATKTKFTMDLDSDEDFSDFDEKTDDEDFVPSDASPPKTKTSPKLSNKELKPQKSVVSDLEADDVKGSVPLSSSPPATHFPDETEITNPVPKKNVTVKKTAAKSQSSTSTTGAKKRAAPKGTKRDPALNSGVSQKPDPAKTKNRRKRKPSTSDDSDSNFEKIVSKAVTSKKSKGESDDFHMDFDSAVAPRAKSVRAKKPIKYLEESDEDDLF

## COc1ccc(/C=C2\CN(C(=O)Nc3ccc(Cl)cc3)C/C(=C\c3ccc(OC)cc3)C2=O)cc1 [Compound 44, N-(4-Chlorophenyl)-3,5-bis[(E)-4-methoxybenzylidene]-4-oxopiperidine-1-carboxamide]
[1]
  IC50: 4.17 ± 0.27 µM
[2]
  IC50: 1.11 ± 0.09 µM
[3]
  IC50: > 50 µM
other
  melting point: 185 to 187 °C
[4]
  IC50: 2.85 ± 0.16 µM
[5]
  IC50: 46.2 ± 1.79 µM

## COc1ccc(NC(=O)N2C/C(=C\c3ccc(C)cc3)C(=O)/C(=C/c3ccc(C)cc3)C2)cc1 [Compound 40, N-(4-Methoxyphenyl)-3,5-bis[(E)-4-methylbenzylidene]-4-oxopiperidine-1-carboxamide]
[1]
  IC50: 5.1 ± 0.3 µM
[2]
  IC50: 2.73 ± 0.2 µM
[3]
  IC50: > 50 µM
other
  melting point: 230 to 232 °C
[4]
  IC50: 4.9 ± 0.34 µM
[5]
  IC50: 40.3 ± 1.56 µM

## O=C1/C(=C/c2ccc(Cl)cc2)CN(C(=O)Nc2ccccc2)C/C1=C\c1ccc(Cl)cc1 [Compound 29, 3,5-Bis[(E)-4-chlorobenzylidene]-4-oxo-N-phenylpiperidine-1-carboxamide]
[1]
  IC50: 1.33 ± 0.24 µM
[2]
  IC50: 0.7 ± 0.06 µM
[3]
  IC50: 9.67 ± 2.03 µM
other
  melting point: 205 to 207 °C
[4]
  IC50: 1.29 ± 0.15 µM
[5]
  IC50: 29 ± 1.39 µM

## CCNC(=O)N1C/C(=C\c2ccccc2)C(=O)/C(=C/c2ccccc2)C1 [Compound 27, 3,5-Di[(E)-benzylidene]-N-ethyl-4-oxopiperidine-1-carboxamide]
[1]
  IC50: 2.95 ± 0.24 µM
[2]
  IC50: 1.61 ± 0.14 µM
[3]
  IC50: > 50 µM
other
  melting point: 172 to 174 °C
[4]
  IC50: 2.56 ± 0.29 µM
[5]
  IC50: 33.6 ± 1.3 µM

## O=C1/C(=C/c2ccc(Cl)cc2)CN(C(=O)Nc2ccc(Cl)cc2)C/C1=C\c1ccc(Cl)cc1 [Compound 30, 3,5-Bis[(E)-4-chlorobenzylidene]-N-(4-chlorophenyl)-4-oxopiperidine-1-carboxamide]
[1]
  IC50: 1.13 ± 0.29 µM
[2]
  IC50: 0.58 ± 0.07 µM
[3]
  IC50: 4.89 ± 1.97 µM
other
  melting point: 185 to 187 °C
[4]
  IC50: 0.64 ± 0.08 µM
[5]
  IC50: 41.8 ± 2.42 µM

## COc1ccc(/C=C2\CN(C(=O)Nc3ccc(OC)cc3)C/C(=C\c3ccc(OC)cc3)C2=O)cc1 [Compound 45, 3,5-Bis[(E)-4-methoxybenzylidene]-N-(4-methoxyphenyl)-4-oxopiperidine-1-carboxamide]
[1]
  IC50: 5.85 ± 0.31 µM
[2]
  IC50: 1.38 ± 0.15 µM
[3]
  IC50: > 50 µM
other
  melting point: 212 to 214 °C
[4]
  IC50: 11.3 ± 1.1 µM
[5]
  IC50: 39.3 ± 1.52 µM

## COc1ccc(NC(=O)N2C/C(=C\c3ccc(F)cc3)C(=O)/C(=C/c3ccc(F)cc3)C2)cc1 [Compound 36, 3,5-Bis[(E)-4-fluorobenzylidene]-N-(4-methoxyphenyl)-4-oxopiperidine-1-carboxamide]
[1]
  IC50: 1.71 ± 0.12 µM
[2]
  IC50: 0.62 ± 0.05 µM
[3]
  IC50: 9.46 ± 1.86 µM
other
  melting point: 189 to 191 °C
[4]
  IC50: 1.31 ± 0.08 µM
[5]
  IC50: 23 ± 1.37 µM
